Experimental findings from patent publication EP1038880B1, “Androstanes and pregnanes for allosteric modulation of GABA receptor” (priority 1994, dated 1995) are described below.

Molecules are shown by their SMILES.

For this test, the target named is T1, Hippocampal Mineralocorticoid Receptors (Rattus norvegicus, UniProt P22199).
T1 construct: To isolate the mineralocorticoid receptor, brain cytosol fractions were prepared; from tissue; host or cells: rat brain (hippocampal) cytosol
T1 sequence (P22199 1-981): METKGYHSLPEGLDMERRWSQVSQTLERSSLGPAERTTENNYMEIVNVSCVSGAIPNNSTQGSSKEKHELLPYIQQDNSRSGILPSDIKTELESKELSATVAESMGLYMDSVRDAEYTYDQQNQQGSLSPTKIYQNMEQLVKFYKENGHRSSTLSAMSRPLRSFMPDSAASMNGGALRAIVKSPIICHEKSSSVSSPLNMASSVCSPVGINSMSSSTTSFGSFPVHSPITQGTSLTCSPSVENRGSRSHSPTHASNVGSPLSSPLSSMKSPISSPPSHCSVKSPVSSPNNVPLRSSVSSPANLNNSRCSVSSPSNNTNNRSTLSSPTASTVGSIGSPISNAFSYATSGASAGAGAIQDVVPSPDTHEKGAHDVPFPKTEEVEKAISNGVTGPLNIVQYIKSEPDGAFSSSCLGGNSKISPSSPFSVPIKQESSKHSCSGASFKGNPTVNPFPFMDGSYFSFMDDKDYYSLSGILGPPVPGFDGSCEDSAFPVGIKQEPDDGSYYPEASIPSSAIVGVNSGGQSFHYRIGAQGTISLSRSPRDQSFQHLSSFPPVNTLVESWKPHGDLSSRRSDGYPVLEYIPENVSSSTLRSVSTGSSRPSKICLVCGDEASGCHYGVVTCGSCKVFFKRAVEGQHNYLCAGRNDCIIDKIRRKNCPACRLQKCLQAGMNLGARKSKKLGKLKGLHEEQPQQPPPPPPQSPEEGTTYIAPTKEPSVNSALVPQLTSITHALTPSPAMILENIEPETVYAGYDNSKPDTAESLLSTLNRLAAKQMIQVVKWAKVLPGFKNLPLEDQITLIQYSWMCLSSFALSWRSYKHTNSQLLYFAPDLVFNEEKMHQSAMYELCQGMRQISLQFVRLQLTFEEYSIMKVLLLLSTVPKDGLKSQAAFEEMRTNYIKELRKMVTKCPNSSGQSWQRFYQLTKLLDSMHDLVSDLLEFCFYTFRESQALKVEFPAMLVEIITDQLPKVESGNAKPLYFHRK
The experiment in a line: Inhibition of 3H-aldosterone binding, brain cytosol. The note with it: competitor 10^-6M; 3 nM 3H-aldosterone, RU28362 0.5 µM. Further details: species or system rats. As to the method:
Various hormonal activities of representative neuroactive steroids were further studied through testing their potential estrogenic, mineralocorticoid and glucocorticoid activities. These activities were analyzed by monitoring the ability of the compounds to inhibit binding of the steroid hormones to their respective hormone receptors.
In Table 3, rats were adrenalectomized 3 days prior to sacrifice. […] Table 2. Inhibition of 3H-Progesterone Binding to the Bovine Uteral Progesterone Receptors
Table 3. Inhibition of 3H-Aldosterone Binding to Hippocampal Mineralocorticoid Receptors

For orientation: inhibition means the relative decrease from the control value, in per cent. Take `C[C@]12CC[C@@H](O)C[C@@H]1CC[C@@H]1[C@@H]2CC[C@]2(C)[C@@H](C(=O)CO)CC[C@@H]12` [3α,21-dihydroxy-5α-pregnan-20-one]: at 1 µM the inhibition was 76.7%.
